The numbers were not newly measured in US6515198B2, “Use of purinergic receptor modulators and related reagents” (Syntex (U.S.A.) LLC, priority 2000, dated 2003), which cites them from elsewhere.

SMILES strings stand for the structures.

The subject of this data set is bladder sensory afferents. The following applies: agents capable of desensitizing P2X3 receptor subunit responses.

Consider `Nc1ncnc2c1ncn2[C@@H]1O[C@H](COP(=O)(O)CP(=O)(O)OP(=O)(O)O)[C@@H](O)[C@H]1O` [αβ-ATP], for which the “effect on the activity of bladder sensory afferents” value is listed as “decrease the activity of bladder sensory afferents”. With `Cc1ccc(C(=O)Nc2ccc(S(=O)(=O)O)c3cc(S(=O)(=O)O)cc(S(=O)(=O)O)c23)cc1NC(=O)c1cccc(NC(=O)Nc2cccc(C(=O)Nc3cc(C(=O)Nc4ccc(S(=O)(=O)O)c5cc(S(=O)(=O)O)cc(S(=O)(=O)O)c45)ccc3C)c2)c1` [suramin], the “effect on the activity of bladder sensory afferents” value is recorded as “decrease the activity of bladder sensory afferents”.
